Data reported in patent US20020168329A1, “Skin composition” (Unilever Home & Personal Care USA, Division of Conopco, Inc., priority 2001, published 2002).

Tested on: Volunteers with oily skin type
Experiment: Oil (sebum) secretion on the skin measured with Sebumeter SM 810 PC after one week of twice-daily cream use
Type: in vivo, human
Conditions: after 2 hours; conclusion from Table 1
Procedure: Method of Testing Oil Secretion:
The above mentioned formulations (Examples 1 to 4) were tested for their efficacy in reducing the oil secretion on the skin using a sebumeter by the following protocol.
Volunteers with oily skin type were recruited. The initial sebum was measured with Sebumeter SM 810 PC on the cheeks, and the selection was made such that they had approximately similar sebum profile. The panellists were asked to use 0.5 g of the assigned cream on their face twice a day, for one week. The sebum profile was measured on the 8th day. The panellists washed their face and the sebum secretion on the skin surface after 2 hours was measured using the Sebumeter SM 810 PC on the cheeks.
Sebumeter is a device for measuring sebum content on skin surface. A piece of plastic film (wound in the form of a cassette) is kept on the skin for 30 sec. By this means the […] measuring area of the plastic film becomes transparent due to absorbed sebum. […] Sebumeter SM 810 PC immediately indicates sebum content between 50 & 300 μgm/cm^2 % sebum reduction is calculated.
The protocol to measure the % reduction in sebum secretion is as per the procedure described above. The samples of creams described in Examples 4, 5 and 6 were tested for their efficacy in reducing the sebum secretion and the data are presented in Table 3.

Structure (SMILES)	effect in reducing oil secretion on the skin (in words)
NC(=O)c1cccnc1 [niacinamide]	significant effect in reducing oil secretion on the skin
CCCCCCCCCCCCCOC(=O)c1ccccc1O [tridecyl salicylate]	significant effect in reducing oil secretion on the skin
